The source of these data is ChEMBL document CHEMBL5042472, “Design, Synthesis, and Biological Evaluation of a Novel Photocaged PI3K Inhibitor toward Precise Cancer Treatment” (J Med Chem, 2021).

Bounds are passed on as bounds.

The term IC50 denotes the point on the concentration scale where inhibition reaches its midpoint. As usually defined, the half-life is the time in which the quantity being followed falls by half. In general, Papp A→B refers to the apparent permeability from the apical to the basolateral side of a cell layer. The Papp B→A is the apparent permeability from the basolateral to the apical side of a cell layer.

A short description of data set [1]: Retention time of the compound by HPLC analysis. The class given is physicochemical.
Data set [2] relates to BGC-823. As to the kind of experiment: Antiproliferative activity against human BGC-823 cells assessed as reduction in cell viability incubated in dark for 96 hrs by MTT assay. The class given is functional, cell-based. The conditions noted are these: BGC-823, 96 h. For orientation: Formazan colour is commonly taken as a measure of viable cells.
Data set [3] concerns MGC-803. As to the kind of experiment: Antiproliferative activity against human MGC-803 cells assessed as reduction in cell viability incubated in dark for 96 hrs by MTT assay. In kind it is functional, cell-based. The conditions noted are these: MGC-803, 96 h.
Data set [4] has as its system AGS. As to the kind of experiment: Antiproliferative activity against human AGS cells assessed as reduction in cell viability incubated in dark for 96 hrs by MTT assay. In kind it is functional, cell-based.
Data set [5] has as its system HGC-27. Kind of data set: Antiproliferative activity against human HGC-27 cells assessed as reduction in cell viability incubated in dark for 96 hrs by MTT assay. The conditions noted are these: HGC-27, 96 h. The class given is functional, cell-based.
The test system of data set [6] is HCT-116. As to the kind of experiment: Antiproliferative activity against human HCT-116 cells assessed as reduction in cell viability incubated in dark for 96 hrs by MTT assay. In kind it is functional, cell-based. The conditions noted are these: HCT-116, 96 h.
For data set [7], the system named is MG-63. Kind of data set: Antiproliferative activity against human MG-63 cells assessed as reduction in cell viability incubated in dark for 96 hrs by MTT assay. The conditions noted are these: MG-63, 96 h. The class given is functional, cell-based.
The nature of data set [8]: Plasma protein binding in rat at 1 uM by LC-MS/MS analysis. The class given is ADME, cell-free. To be noted: read-out: PPB (converted).
Data set [9] can be described thus: Stability in rat plasma assessed as half life at 1 uM measured upto 120 min by LC-MS/MS analysis. In kind it is ADME, cell-free.
The nature of data set [10]: Stability in rat liver microsomes assessed as half life at 1 uM in presence of NADPH by LC-MS/MS analysis. The class given is ADME, Microsome.
Data set [11] can be described thus: Apparent permeability across apical to basolateral side in human Caco-2 cells at 10 uM incubated for 2 hrs by LC-MS/MS analysis. In kind it is ADME, cell-based.
A short description of data set [12]: Apparent permeability across basolateral to apical side in human Caco-2 cells at 10 uM incubated for 2 hrs by LC-MS/MS analysis. In kind it is ADME, cell-based. (In general: Caco-2 monolayers are a common model of the intestinal barrier.)
A short description of data set [13]: Plasma protein binding in dog at 1 uM by LC-MS/MS analysis. The class given is ADME, cell-free, Canis lupus familiaris. The conditions noted are these: read-out: PPB (converted).
Data set [14] in a line: Stability in dog plasma assessed as half life at 1 uM measured upto 120 min by LC-MS/MS analysis. The class given is ADME, cell-free, Canis lupus familiaris.
A short description of data set [15]: Stability in dog liver microsomes assessed as half life at 1 uM in presence of NADPH measured upto 120 min by LC-MS/MS analysis. The class given is ADME, Canis lupus familiaris, Microsome.

As to `COc1ncc(-c2cc(OC3CCOCC3)c3ncnc(C)c3c2)cc1NS(=O)(=O)c1ccc(F)cc1F`, the Retention_time in [1] is 5.2 min. The IC50 in [2] was found to be 18.6 nM; in [3] it was 14.8 nM; in [4], 6.3 nM; in [5], 0.76 nM; in [6], 23.4 nM; in [7], 5.7 nM. The fraction unbound at 1 µM in data set [8] and in data set [13] was 0.017 in each case. In addition, the half-life at 1 µM in data set [9] is over 2 h; in data set [10], 1.73 h; in [14] it was over 2 h; in data set [15], over 2 h. In data set [11], the Papp A→B at 2 h, 10 µM was determined as 21.2 ×10⁻⁶ cm/s. For the same molecule, the Papp B→A at 2 h, 10 µM in data set [12] was found to be 26.5 ×10⁻⁶ cm/s.
